US20240293359A1, “PROPHYLACTIC OR THERAPEUTIC DRUG FOR PARKINSON'S DISEASE” (Kyowa Pharma Chemical Co., Ltd., priority 2021, published 2024)
≈ marks a conversion by molar mass, not a printed value.

Key:
[1] = tested on: dopamine oxidation accelerated in the presence of Fe^3+; experiment: Suppression test of dopamine oxidation accelerated in presence of iron ions; assay type: biochemical; details: dopamine 2 mmol/L, Fe^3+ 2 mmol/L, hydrogen peroxide 1 moL/L, 0.2 M phosphate buffer pH 6.5, 25° C., 6 to 9 hours
Protocol: For a test, dopamine hydrochloride (DA·HCl), iron(III) nitrate 9-hydrate (Fe(NO3)3·9H2O) as Fe^3+ source, hydrogen peroxide solution as oxidant, glutathione trisulfide 2-hydrate, lipoic acid trisulfide, pantethine trisulfide, or N,N′-diacetyl-L-cysteine trisulfide as trisulfide compound were used.
A method of preparing each substance is as follows. • 10 mM DA-HCl aqueous solution: prepared by dissolving DA·HCl in purified water. • 20 mM Fe^3+ solution: prepared by dissolving Fe(NO3)3·9H2O in 5 mmol/L H2SO4. • 40 mM glutathione trisulfide solution: prepared by dissolving glutathione trisulfide 2-hydrate in 0.2 mol/L phosphate buffer solution (pH=6.5). • 40 mM lipoic acid trisulfide solution: prepared by dissolving lipoic acid trisulfide in 0.2 mol/L phosphate buffer solution (pH=6.5). • 400 mM pantethine trisulfide solution: prepared by dissolving pantethine trisulfide in 0.2 mol/L phosphate buffer solution (pH==6.5). • 40 mM N,N′-diacetyl-L-cysteine trisulfide: prepared by dissolving N,N′-diacetyl-L-cysteine trisulfide in 0.2 mol/L phosphate buffer solution (pH=6.5).
The pre-prepared preparation solution of each substance (mentioned above) and 0.2 M phosphate buffer solution (pH=6.5) were mixed in a 50 mL or 5 mL test tube to prepare 20 mL or 2 mL reaction solution so that each substance has the following concentration in the reaction solution. • Dopamine: 2 mmol/L • Fe^3+: 2 mmol/L • Hydrogen peroxide: 1 moL/L • Glutathione trisulfide: 3 concentrations (5, 10 or 20 mmol/L) • Lipoic acid trisulfide: 2 concentrations (10 or 20 mmol/L) • Pantethine trisulfide: 3 concentrations (100, 150 or 200 mmol/L) • N,N′-diacetyl-L-cysteine trisulfide: 3 concentrations (5, 10 or 20 mmol/L)
The reaction solution was stirred at 25° C., 500 rpm for 6 to 9 hours. The dopamine concentration in the reaction solution was quantified with high performance liquid chromatography (HPLC).
The conditions for HPLC is as follows. • Detector: Ultraviolet absorptiometer (measuring wavelength: 280 nm) • Column: Inertsil ODS-2 (4.6 mm I.D.×150 mm, 5 μm) • Column temperature: constant temperature around 35° C. • Mobile phase: prepared by adding 0.2 mol/L citric acid aqueous solution to 0.2 mol/L disodium hydrogenphosphate aqueous solution to adjust to pH 3.0. • Flow rate: 0.7 mL/min • Amount infused: 20 μL • Area measurement range: for 30 minutes after infusion of sample solution Preparation of sample solution: prepared by diluting 100 μL reaction solution 10-fold with water to form sample solution • Retention time: Dopamine (DA) approximately 7 minutes

[2] = Solubility in water at 20° C.; assay type: physicochemical; details: free lipoic acid trisulfide

O=C(O)CCCCC1CCSSS1 (racemic) [lipoic acid trisulfide]
suppression of dopamine oxidation in the presence of Fe^3+ (dopamine concentration by HPLC, FIG. 2) ([1]; lipoic acid trisulfide 10 or 20 mmol/L): suppressed the dopamine oxidation

N[C@@H](CCC(=O)N[C@@H](CSSSC[C@H](NC(=O)CC[C@H](N)C(=O)O)C(=O)NCC(=O)O)C(=O)NCC(=O)O)C(=O)O [Glutathione trisulfide, glutathione trisulfide]
suppression of dopamine oxidation in the presence of Fe^3+ (dopamine concentration by HPLC, FIG. 1) ([1]; glutathione trisulfide 5, 10 or 20 mmol/L): suppressed the dopamine oxidation

O=C(O)CCCC[C@@H]1CCSSS1 [Lipoic acid trisulfide R body, (R)-lipoic acid trisulfide]
solubility [2]: 300 µg/mL (≈ 1260 µM)

CC(=O)N[C@@H](CSSSC[C@H](NC(C)=O)C(=O)O)C(=O)O [N,N′-diacetyl-L-cysteine trisulfide]
suppression of dopamine oxidation in the presence of Fe^3+ (dopamine concentration by HPLC, FIG. 4) ([1]; N,N′-diacetyl-L-cysteine trisulfide 5, 10 or 20 mmol/L): suppressed the dopamine oxidation

CC(C)(CO)[C@@H](O)C(=O)NCCC(=O)NCCSSSCCNC(=O)CCNC(=O)[C@H](O)C(C)(C)CO [pantethine trisulfide]
suppression of dopamine oxidation in the presence of Fe^3+ (dopamine concentration by HPLC, FIG. 3) ([1]; pantethine trisulfide 100, 150 or 200 mmol/L): suppressed the dopamine oxidation
